Measured values: patent US11584744B2 (UNIVERSITY OF WASHINGTON, priority 2017, dated 2023)
In brackets after ≈: the same amount, converted by molar mass. Like-named read-outs stand apart in the source and are kept apart here.

Tests used:
[1] = target: T1, MetRS (T. brucei) (Trypanosoma brucei brucei, UniProt Q38C91); experiment: MetRS (T. brucei) enzyme inhibition; assay type: biochemical
T1 sequence (Q38C91 1-773): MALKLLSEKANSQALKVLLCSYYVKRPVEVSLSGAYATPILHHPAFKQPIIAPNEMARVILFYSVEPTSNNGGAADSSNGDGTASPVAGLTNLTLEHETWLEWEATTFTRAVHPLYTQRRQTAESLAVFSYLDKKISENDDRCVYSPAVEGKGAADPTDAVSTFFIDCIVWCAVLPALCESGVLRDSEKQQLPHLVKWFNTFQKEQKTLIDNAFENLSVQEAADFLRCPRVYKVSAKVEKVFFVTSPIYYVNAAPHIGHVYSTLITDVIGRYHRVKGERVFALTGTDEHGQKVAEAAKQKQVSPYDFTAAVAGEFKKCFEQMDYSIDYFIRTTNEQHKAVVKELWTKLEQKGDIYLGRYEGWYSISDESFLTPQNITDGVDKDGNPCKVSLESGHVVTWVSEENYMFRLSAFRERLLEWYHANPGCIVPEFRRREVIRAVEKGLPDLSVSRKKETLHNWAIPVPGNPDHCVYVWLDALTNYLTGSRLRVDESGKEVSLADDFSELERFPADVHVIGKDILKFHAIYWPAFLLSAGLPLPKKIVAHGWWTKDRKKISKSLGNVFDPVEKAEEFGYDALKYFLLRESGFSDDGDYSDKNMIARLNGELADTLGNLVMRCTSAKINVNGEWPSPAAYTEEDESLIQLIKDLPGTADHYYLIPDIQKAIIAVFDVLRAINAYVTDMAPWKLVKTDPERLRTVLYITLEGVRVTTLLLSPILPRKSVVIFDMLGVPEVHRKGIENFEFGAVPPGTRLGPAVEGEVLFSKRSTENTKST

[2] = tested on: T. cruzi; experiment: T. cruzi growth inhibition; assay type: cell-based, Trypanosoma cruzi; settings: read-out: (E) T. cruzi EC50
[3] = target: MetRS (C. parvum) (Cryptosporidium parvum, UniProt Q5CVN0); experiment: MetRS (C. parvum) enzyme inhibition; assay type: biochemical; settings: read-out: (C) MetRS (C. parvum) IC50
[4] = target: recombinant S. aureus MetRS enzyme (Staphylococcus aureus, UniProt A0A0H2XID2); experiment: Inhibition of SaMetRS, ATP depletion assay; assay type: biochemical; settings: read-out: (B) MetRS (S. aureus) IC50
Protocol: Production of recombinant S. aureus MetRSs. The SaMetRS gene (UniProtKB—A0A0H2XID2) was PCR amplified (Sense 5′-[…]-3′ (SEQ ID NO: 1) and Antisense 5′-[…]-3′ (SEQ ID NO:2)) from genomic DNA isolated from S. aureus (ATCC 29213) cultures. The PCR product was then cloned into the AVA0421 plasmid and sequence verified. The expression of recombinant protein was performed as previously described. The N-terminal 6-His fusion proteins were purified by nickel affinity chromatography followed by size exclusion gel chromatography (Superdex 75 26/60; GE Biosciences, Piscataway, N.J.).
Enzyme assays. Inhibition of SaMetRS was measured using the ATP depletion assay as previously described with some modifications. Compounds were pre-incubated for 15 minutes at room temperature in a 96-well plate with 400 μg/mL bulk E. coli tRNA, 25 nM SaMetRS, 0.1 U/mL pyrophosphatase, 0.2 mM spermine, 0.1 mg/mL bovine serum albumin, 2.5 mM dithiothreitol, 25 mM HEPES-KOH pH 7.9, 10 mM MgCl2, 50 mM KCl, and 2% DMSO. Reagents were purchased from Sigma-Aldrich or Roche. The reaction was started with the addition of 150 nM ATP and 20 μM L-methionine and after 120 minute incubation was stopped by the addition of an equal volume (50 μL) of Kinase-Glo® (Promega). Percent inhibition=100×(test compound−AVG low control)/(AVG high control−AVG low control) where the low control is all reagents except the compound and the high control is all reagents except the compounds and L-methionine. IC50 values were calculated by non-linear regression, sigmoidal-dose response, in Prism 3.0.

[5] = tested on: S. aureus MSSA (ATCC 29213); experiment: MIC susceptibility testing; assay type: cell-based, Staphylococcus aureus; settings: S. aureus ATCC 29213; for MIC: Staphylococcus aureus, read-out: (F) S. aureus (ATCC 29213) MIC
[6] = tested on: S. aureus MRSA (ATCC 33591); experiment: MIC susceptibility testing; assay type: cell-based, Staphylococcus aureus; settings: Staphylococcus aureus, MRSA ATCC33591; read-out: (G) MRSA (ATCC33591) MIC
Method in brief: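 CLSI broth microdilution in triplicate, 5×10^5 CFU/mL final, ≤0.5% DMSO; MHB for S. aureus, CA-MHB for E. coli and E. faecium, CA-MHB plus 3% laked horse blood for S. pyogenes (5% CO2).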

[7] = tested on: C. parvum; experiment: C. parvum growth inhibition; assay type: cell-based, Cryptosporidium parvum; settings: read-out: (J) C. parvum EC50
[8] = tested on: T. brucei; experiment: T. brucei growth inhibition; assay type: cell-based, Trypanosoma brucei; settings: read-out: (D) T. brucei EC50
[9] = tested on: E. faecium VRE (ATCC 51559); experiment: MIC susceptibility testing; assay type: cell-based, Enterococcus faecium; settings: E. faecium ATCC 51559; for MIC: Enterococcus faecium, read-out: (I) E. faecium (ATCC 51559) MIC
Text: Media and culture conditions. Mueller Hinton broth (MHB), cation adjusted Mueller Hinton broth (CA-MHB), and Brain Heart Infusion broth (BHI) were purchased from Becton Dickinson (Franklin Lakes, N.J.). Tryptic soy agar (TSA) plates, TSA with 5% sheep blood plates, and CA-MHB with 3% laked horse blood were purchased from Remel (San Diego, Calif.). MHB was used to assay all Staphylococcus aureus strains. CA-MHB was used for Staphylococcus epidermidis, Enterococcus faecalis, Enterococcus faecium, Escherichia coli, and Pseudomonas aeruginosa. CA-MHB supplemented with 3% laked horse blood was used for Streptococcus pneumoniae and Streptococcus pyogenes. Staphylococcus, Enterococcus, Escherichia, and Pseudomonas strains were cultured at 37° C. with ambient air. Streptococcus strains were cultured in 37° C. with 5% CO2. Separate conditions for radiolabeled precursor uptake assays are described below.
Susceptibility testing: Minimum inhibitory concentration (MIC) determinations were performed in triplicate in 96-well round bottom microtiter plates (Corning, Corning N.Y.) as described by the Clinical and Laboratory Standards Institute (CLSI). Serial two-fold dilutions of compounds were added to plates in 50 μL volumes. An additional 50 μL of media containing bacterial cells (1×10^6 CFUs/mL) was then added to each well. Maximum DMSO concentrations were 0.5%. Plates were incubated at 37° C. for at least 18 h before reading the susceptibility result by optical absorbance (OD600) using a BioTek ELx800. The lowest concentration causing ≥90% growth inhibition compared to the untreated control was recorded as the MIC (and also corresponded to the visual MIC). MICs were measured at least twice and the higher value (if different) was recorded herein.

Sequence of MetRS (C. parvum) (Q5CVN0 entry or part of it): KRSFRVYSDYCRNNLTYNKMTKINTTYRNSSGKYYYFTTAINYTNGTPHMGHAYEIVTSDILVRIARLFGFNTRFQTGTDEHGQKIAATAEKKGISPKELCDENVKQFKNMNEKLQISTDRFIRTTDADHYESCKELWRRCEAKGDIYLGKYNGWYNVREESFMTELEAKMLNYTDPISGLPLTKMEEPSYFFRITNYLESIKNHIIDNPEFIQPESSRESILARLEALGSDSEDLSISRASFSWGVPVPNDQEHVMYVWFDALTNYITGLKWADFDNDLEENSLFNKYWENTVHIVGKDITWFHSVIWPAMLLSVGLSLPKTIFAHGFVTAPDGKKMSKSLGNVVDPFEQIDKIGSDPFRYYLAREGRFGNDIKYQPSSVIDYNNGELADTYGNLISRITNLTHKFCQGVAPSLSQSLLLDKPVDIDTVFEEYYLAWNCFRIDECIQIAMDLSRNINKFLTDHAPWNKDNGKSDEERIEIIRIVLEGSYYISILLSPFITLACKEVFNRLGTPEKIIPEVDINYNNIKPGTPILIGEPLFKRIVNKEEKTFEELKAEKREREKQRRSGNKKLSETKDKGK

Row | Compound | IC50 [1] [nM] | EC50 ([2]; Trypanosoma cruzi) [nM] | IC50 [3] [nM] | MIC [5] [µg/mL] | MIC [6] [µg/mL] | EC50 ([7]; Cryptosporidium parvum) [nM] | EC50 [2] [nM] | EC50 ([8]; Trypanosoma brucei) [nM] | MIC [9] [µg/mL] | EC50 [7] [nM] | (F) S. aureus (ATCC 29213) MIC [5] [µg/mL] | EC50 [8] [nM] | (I) E. faecium (ATCC 51559) MIC [9] [µg/mL] | IC50 [4] [nM]
1 | O=c1n(Cc2nc3nc(F)ccc3[nH]2)cc(Cc2ccc(Cl)cc2Cl)n1C1CCOCC1 [Compound 2088, 4-[(2,4-dichlorophenyl)methyl]-1-({5-fluoro-1H-imidazo[4,5-b]pyridin-2-yl}methyl)-3-(oxan-4-yl)-2,3-dihydro-1H-imidazol-2-one] | < 40 | 263 | < 40 | 0.424 (≈ 0.89 µM) | 1.5 (≈ 3.15 µM) |  |  |  |  |  |  |  |  | < 25
2 | COc1cc(Cl)c(-c2cccc3nc(Cc4nc5nc(F)ccc5[nH]4)cn23)cc1OC [Compound 2145, 5-(2-chloro-4,5-dimethoxyphenyl)-2-({5-fluoro-1H-imidazo[4,5-b]pyridin-2-yl}methyl)imidazo[1,2-a]pyridine] | < 40 | 66.7 | 74.7 |  |  | > 2000 | 129 |  |  |  |  |  |  | < 25
3 | CS(=O)(=O)c1nc(Cc2ccc(Cl)cc2Cl)cn1Cc1nc2ccc(F)nc2[nH]1 [Compound 2105, 4-[(2,4-dichlorophenyl)methyl]-1-({5-fluoro-1H-imidazo[4,5-b]pyridin-2-yl}methyl)-2-methanesulfonyl-1H-imidazole] | < 40 | 867 | 109 | 2.15 (≈ 4.73 µM) |  |  |  | 71.5 |  |  |  |  |  | < 25
4 | CS(=O)(=O)c1nc(Cc2ccc(Cl)cc2Cl)cn1Cc1nc2nc(Cl)ccc2[nH]1 [Compound 2111, 1-({5-chloro-1H-imidazo[4,5-b]pyridin-2-yl}methyl)-4-[(2,4-dichlorophenyl)methyl]-2-methanesulfonyl-1H-imidazole] | < 40 | 445 | 146 | 1.25 (≈ 2.66 µM) |  |  |  | 54.6 |  |  |  |  |  | < 25
5 | COc1ccc(-c2ccc(NC(C)=O)c3nc(Cc4nc5cc(Cl)ccc5[nH]4)cn23)c(Cl)c1 [Compound 2180, N-{2-[(6-chloro-1H-1,3-benzodiazol-2-yl)methyl]-5-(2-chloro-4-methoxyphenyl)imidazo[1,2-a]pyridin-8-yl}acetamide] | < 40 | 179 | < 40 | 0.362 (≈ 0.754 µM) | 0.515 (≈ 1.07 µM) | 656 |  | 18.5 | 0.357 (≈ 0.743 µM) | 640 |  |  |  | 
6 | COc1cc(-c2cccc3nc(Cc4nc5nc(F)ccc5[nH]4)cn23)c(Cl)cc1Cl [Compound 2129, 5-(2,4-dichloro-5-methoxyphenyl)-2-({5-fluoro-1H-imidazo[4,5-b]pyridin-2-yl}methyl)imidazo[1,2-a]pyridine] | < 40 | 102 | < 40 |  |  |  | 82 |  |  |  |  |  |  | < 25
7 | COc1ccc(-c2cncc3nc(Cc4nc5nc(Cl)ccc5[nH]4)cn23)c(Cl)c1 [Compound 2156, 2-({5-chloro-1H-imidazo[4,5-b]pyridin-2-yl}methyl)-5-(2-chloro-4-methoxyphenyl)imidazo[1,2-a]pyrazine] | < 40 | 319 | < 40 | 1.1 (≈ 2.59 µM) | 0.285 (≈ 0.67 µM) | 1290 |  | 32 | 1.49 (≈ 3.5 µM) |  | 0.946 |  |  | 

Continued, in another order:

Row | IC50 [1] [nM] | EC50 ([2]; Trypanosoma cruzi) [nM] | IC50 [3] [nM] | MIC [5] [µg/mL] | MIC [6] [µg/mL] | EC50 ([7]; Cryptosporidium parvum) [nM] | EC50 [2] [nM] | EC50 ([8]; Trypanosoma brucei) [nM] | MIC [9] [µg/mL] | EC50 [7] [nM] | (F) S. aureus (ATCC 29213) MIC [5] [µg/mL] | EC50 [8] [nM] | (I) E. faecium (ATCC 51559) MIC [9] [µg/mL] | Compound | IC50 [4] [nM]
8 | < 40 | 34.7 | 99.4 | 0.34 (≈ 0.754 µM) | 0.359 (≈ 0.797 µM) | > 2000 | 45.2 | 1.73 | 0.172 (≈ 0.382 µM) |  |  |  |  | CCn1c(C(=O)c2ccc(Cl)cc2Cl)cn(Cc2nc3ccc(Cl)nc3[nH]2)c1=O [Compound 2203, 1-((5-chloro-3H-imidazo[4,5-b]pyridin-2-yl)methyl)-4-(2,4-dichlorobenzoyl)-3-ethyl-1,3-dihydro-2H-imidazol-2-one] | 
9 | < 40 | 21.7 | 50.2 | 0.493 (≈ 1.03 µM) | 0.489 (≈ 1.02 µM) | 1170 | 22.1 | < 0.91 | 0.389 (≈ 0.809 µM) |  | 0.590 | 1.16 | 0.281 | CC(C)(O)Cn1c(Cc2ccc(Cl)cc2Cl)cn(Cc2nc3ccc(Cl)nc3[nH]2)c1=O [Compound 2211, 1-((5-chloro-3H-imidazo[4,5-b]pyridin-2-yl)methyl)-4-(2,4-dichlorobenzyl)-3-(2-hydroxy-2-methylpropyl)-1,3-dihydro-2H-imidazol-2-one] | 
10 | < 40 | 207 | 72.2 | 0.863 (≈ 2.04 µM) | 0.701 (≈ 1.66 µM) | > 2000 |  | 4.88 | 0.979 (≈ 2.32 µM) |  | 0.946 |  |  | O=C(c1cn(Cc2nc3ccc(Cl)nc3[nH]2)c(=O)[nH]1)c1ccc(Cl)cc1Cl [Compound 2201, 1-({5-chloro-1H-imidazo[4,5-b]pyridin-2-yl}methyl)-4-(2,4-dichlorobenzoyl)-2,3-dihydro-1H-imidazol-2-one] | 
11 | < 40 | 63.4 | < 40 | 0.422 (≈ 0.932 µM) | 0.52 (≈ 1.15 µM) | 1910 | 71.3 | 2.12 | 0.272 (≈ 0.601 µM) |  | 0.574 |  |  | O=c1n(Cc2nc3ccc(Cl)nc3[nH]2)cc(Cc2ccc(Cl)cc2Cl)n1CCO [Compound 2213, 1-({5-chloro-1H-imidazo[4,5-b]pyridin-2-yl}methyl)-4-[(2,4-dichlorophenyl)-methyl]-3-(2-hydroxyethyl)-2,3-dihydro-1H-imidazol-2-one] | 
